Common to all, as to assay type: cell-based
For test [1], the target named is Ba/F3 cells EGFR L858R/T790M (Homo sapiens, UniProt P00533, T790M/L858R, cells depend on it). The experiment in a line: Cell proliferation/growth MTS assay in EGFR mutant Ba/F3 cells. Particulars: 72 hours, read-out: IC50 (nM) in Ba/F3 Cells, EGFR L858R/T790M. An excerpt:
(§1) The EGFR and iERBB2 mutant Ba/F3 cells and the NIH-3T3 cells have been previously characterized (Engelman, J. A. et al. Cancer Res 67, 11924-32 (2007); Yuza, Y. et al. Cancer Biol Ther 6 (2007)). The EGFR C797S and the ERBB2 T798I mutations are introduced using site directed mutagenesis using the Quick Change Site-Directed Mutagenesis kit (Stratagene; La Jolla, Calif.) according to the manufacturer's instructions (Mukohara, T. et al. J Natl Cancer Inst 97, 1185-94 (2005)). The oligonucleotide sequences are available upon request. All constructs are confirmed by DNA sequencing. The constructs are shuttled into the retroviral vector JP1540 using the BD Creator™ System (BD Biosciences). Ba/F3 of NIH-3T3 cells are infected with retrovirus according to standard protocols, as described previously (Engelman, J. A. et al. Proc Natl Acad Sci USA 102, 3788-93 (2005); Zhao, J. J. et al. Cancer Cell 3, 483-95 (2003)). Stable populations are obtained by selection in puromycin (2 μg/ml).
(§2) Growth and inhibition of growth is assessed by MTS assay. This assay, a colorimetric method for determining the number of viable cells, is based on the bioreduction of 3-(4,5-dimethylthiazol-2-yl)-5-(3-carboxymethoxyphenyl)-2-(4-sulfophenyl)-2H-tetrazolium (MTS) by cells to a formazan product that is soluble in cell culture medium, can be detected spectrophotometrically and was performed according to previously established methods (Mukohara, T. et al. J Natl Cancer Inst 97, 1185-94 (2005); Paez, J. G. et al. Science 304, 1497 500 (2004); Engelman, J. A. et al. J Clin Invest 116, 2695-2706 (2006). NSCLC or Ba/F3 cells are exposed to treatment for 72 hours and the number of cells used per experiment determined empirically and has been previously established. All experimental points are set up in six to twelve wells and all experiments are repeated at least three times. […] The curves are fitted using a non-linear regression model with a sigmoidal dose response.
(§3) Activity of various compounds of the invention was determined in vitro in EGFR mutant Ba/F3 cells according to the procedures set forth in Example 1.
(In general: Tetrazolium dyes change colour on reduction, which living cells bring about.)

In test [2] the target is Ba/F3 cells EGFR Del 19/T790M (Homo sapiens, UniProt P00533, DEL746-750/T790M, cells depend on it). Described as above. Particulars: 72 hours, read-out: IC50 (nM) in Ba/F3 Cells, EGFR Del 19/T790M.
Sequence of Ba/F3 cells EGFR Del 19/T790M (P00533 with tags, fused parts or gaps DEL746-750/T790M): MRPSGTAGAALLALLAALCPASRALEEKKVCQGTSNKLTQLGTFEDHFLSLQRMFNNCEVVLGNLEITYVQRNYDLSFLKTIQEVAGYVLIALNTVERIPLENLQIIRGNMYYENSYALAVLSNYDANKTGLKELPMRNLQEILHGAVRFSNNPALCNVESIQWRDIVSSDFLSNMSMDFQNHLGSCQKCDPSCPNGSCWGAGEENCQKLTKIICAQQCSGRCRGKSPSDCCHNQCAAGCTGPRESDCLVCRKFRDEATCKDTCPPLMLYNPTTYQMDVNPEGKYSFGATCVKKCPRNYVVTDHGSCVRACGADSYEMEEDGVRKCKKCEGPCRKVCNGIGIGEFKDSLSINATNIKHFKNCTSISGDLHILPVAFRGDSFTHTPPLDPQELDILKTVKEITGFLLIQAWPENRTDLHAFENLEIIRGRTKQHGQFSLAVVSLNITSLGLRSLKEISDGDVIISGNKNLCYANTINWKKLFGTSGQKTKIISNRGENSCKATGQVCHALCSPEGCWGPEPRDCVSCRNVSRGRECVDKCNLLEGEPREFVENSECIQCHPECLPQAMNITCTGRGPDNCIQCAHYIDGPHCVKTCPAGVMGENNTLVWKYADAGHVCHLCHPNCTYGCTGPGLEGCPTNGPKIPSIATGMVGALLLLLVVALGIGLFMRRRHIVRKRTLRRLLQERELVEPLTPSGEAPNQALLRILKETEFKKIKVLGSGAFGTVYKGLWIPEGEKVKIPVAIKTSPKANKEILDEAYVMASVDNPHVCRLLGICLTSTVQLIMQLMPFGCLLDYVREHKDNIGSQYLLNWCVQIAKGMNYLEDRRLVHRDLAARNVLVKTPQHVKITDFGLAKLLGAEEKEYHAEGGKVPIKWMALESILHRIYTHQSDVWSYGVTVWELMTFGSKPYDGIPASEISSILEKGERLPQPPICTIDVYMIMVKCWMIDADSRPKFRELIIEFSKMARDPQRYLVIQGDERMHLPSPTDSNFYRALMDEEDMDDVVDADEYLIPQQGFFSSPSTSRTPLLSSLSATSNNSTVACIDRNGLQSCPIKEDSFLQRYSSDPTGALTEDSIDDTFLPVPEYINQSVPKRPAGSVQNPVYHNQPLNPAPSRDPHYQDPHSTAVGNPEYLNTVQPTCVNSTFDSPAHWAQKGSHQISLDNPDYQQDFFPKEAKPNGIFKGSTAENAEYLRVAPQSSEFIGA
Text: as §1, §2, §3

The target of a further test is Ba/F3 cells EGFR vIII (Homo sapiens, UniProt P00533, DELINS30-297G, cells depend on it). Described as above. Particulars: 72 hours, read-out: IC50 (nM) in Ba/F3 Cells, EGFR vIII.
Sequence of Ba/F3 cells EGFR vIII (P00533 with tags, fused parts or gaps DELINS30-297G): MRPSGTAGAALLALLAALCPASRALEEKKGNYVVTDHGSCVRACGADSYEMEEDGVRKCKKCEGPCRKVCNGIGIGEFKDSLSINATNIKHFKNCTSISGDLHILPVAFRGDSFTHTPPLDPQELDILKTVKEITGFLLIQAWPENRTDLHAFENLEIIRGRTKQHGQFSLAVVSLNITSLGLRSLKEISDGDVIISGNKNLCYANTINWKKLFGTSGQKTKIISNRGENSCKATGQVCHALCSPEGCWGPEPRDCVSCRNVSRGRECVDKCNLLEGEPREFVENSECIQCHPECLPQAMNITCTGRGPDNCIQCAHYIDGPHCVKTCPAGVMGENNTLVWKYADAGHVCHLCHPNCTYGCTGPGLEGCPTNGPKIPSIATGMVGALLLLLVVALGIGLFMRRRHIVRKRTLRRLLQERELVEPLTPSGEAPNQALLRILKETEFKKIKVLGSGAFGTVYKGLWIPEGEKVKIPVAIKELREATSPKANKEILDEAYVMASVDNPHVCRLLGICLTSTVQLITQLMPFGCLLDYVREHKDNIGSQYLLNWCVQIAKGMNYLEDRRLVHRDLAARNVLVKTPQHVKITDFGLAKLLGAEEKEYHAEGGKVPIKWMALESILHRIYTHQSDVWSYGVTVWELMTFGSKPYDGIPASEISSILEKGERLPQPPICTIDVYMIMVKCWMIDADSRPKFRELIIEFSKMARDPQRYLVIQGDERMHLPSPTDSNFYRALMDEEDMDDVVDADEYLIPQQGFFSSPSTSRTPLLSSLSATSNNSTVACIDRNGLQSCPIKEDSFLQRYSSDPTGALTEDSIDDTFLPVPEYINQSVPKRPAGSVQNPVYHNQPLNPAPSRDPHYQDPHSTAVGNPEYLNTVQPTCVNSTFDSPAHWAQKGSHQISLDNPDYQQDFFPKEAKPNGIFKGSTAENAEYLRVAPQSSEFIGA
Text: as §1, §2, §3

The next test concerns A549 (KRAS G12). Description: Cell proliferation/growth MTS assay in NSCLC cell lines. Particulars: Homo sapiens, 72 hours.
A further test deals with PC9 (EGFR Del 19). The test is described as above. Particulars: 72 hours. An excerpt: (§4) The EGFR mutant NSCLC cell lines HCC827 (del E746_A750), H3255 (L858R), HCC827 GR (del E746_A750/MET amplified), H1975 (L858R/T790M) and PC9 (del E746_A750) have been previously characterized (Amann., J. et al. Cancer Res 65, 226-35 (2005); Engelman, J. A. et al. Science 316, 1039-43 (2007); Ono, M. et al. Mol Cancer Ther 3, 465-72 (2004); Ogino, A. et al. Cancer Res 67, 7807-14 (2007)). The PC9 GR (del E746_A750/T790M) cells are generated and verified to contain del E746_A750 in cis with T790M. The ERBB2 amplified (Calu-3 and H1819) and mutant (H1781) are obtained from ATCC. […]
(§5) Growth and inhibition of growth is assessed by MTS assay. This assay, a colorimetric method for determining the number of viable cells, is based on the bioreduction of 3-(4,5-dimethylthiazol-2-yl)-5-(3-carboxymethoxyphenyl)-2-(4-sulfophenyl)-2H-tetrazolium (MTS) by cells to a formazan product that is soluble in cell culture medium, can be detected spectrophotometrically and was performed according to previously established methods (Mukohara, T. et al. J Natl Cancer Inst 97, 1185-94 (2005); Paez, J. G. et al. Science 304, 1497 500 (2004); Engelman, J. A. et al. J Clin Invest 116, 2695-2706 (2006). NSCLC or Ba/F3 cells are exposed to treatment for 72 hours and the number of cells used per experiment determined empirically and has been previously established. […]

The test system of test [3] is PC9 GR (EGFR Del 19/T790M). The test is described as above. Particulars: 72 hours.
Text: as §4, §5

Sequence of Ba/F3 cells EGFR L858R/T790M (P00533 whole entry T790M/L858R): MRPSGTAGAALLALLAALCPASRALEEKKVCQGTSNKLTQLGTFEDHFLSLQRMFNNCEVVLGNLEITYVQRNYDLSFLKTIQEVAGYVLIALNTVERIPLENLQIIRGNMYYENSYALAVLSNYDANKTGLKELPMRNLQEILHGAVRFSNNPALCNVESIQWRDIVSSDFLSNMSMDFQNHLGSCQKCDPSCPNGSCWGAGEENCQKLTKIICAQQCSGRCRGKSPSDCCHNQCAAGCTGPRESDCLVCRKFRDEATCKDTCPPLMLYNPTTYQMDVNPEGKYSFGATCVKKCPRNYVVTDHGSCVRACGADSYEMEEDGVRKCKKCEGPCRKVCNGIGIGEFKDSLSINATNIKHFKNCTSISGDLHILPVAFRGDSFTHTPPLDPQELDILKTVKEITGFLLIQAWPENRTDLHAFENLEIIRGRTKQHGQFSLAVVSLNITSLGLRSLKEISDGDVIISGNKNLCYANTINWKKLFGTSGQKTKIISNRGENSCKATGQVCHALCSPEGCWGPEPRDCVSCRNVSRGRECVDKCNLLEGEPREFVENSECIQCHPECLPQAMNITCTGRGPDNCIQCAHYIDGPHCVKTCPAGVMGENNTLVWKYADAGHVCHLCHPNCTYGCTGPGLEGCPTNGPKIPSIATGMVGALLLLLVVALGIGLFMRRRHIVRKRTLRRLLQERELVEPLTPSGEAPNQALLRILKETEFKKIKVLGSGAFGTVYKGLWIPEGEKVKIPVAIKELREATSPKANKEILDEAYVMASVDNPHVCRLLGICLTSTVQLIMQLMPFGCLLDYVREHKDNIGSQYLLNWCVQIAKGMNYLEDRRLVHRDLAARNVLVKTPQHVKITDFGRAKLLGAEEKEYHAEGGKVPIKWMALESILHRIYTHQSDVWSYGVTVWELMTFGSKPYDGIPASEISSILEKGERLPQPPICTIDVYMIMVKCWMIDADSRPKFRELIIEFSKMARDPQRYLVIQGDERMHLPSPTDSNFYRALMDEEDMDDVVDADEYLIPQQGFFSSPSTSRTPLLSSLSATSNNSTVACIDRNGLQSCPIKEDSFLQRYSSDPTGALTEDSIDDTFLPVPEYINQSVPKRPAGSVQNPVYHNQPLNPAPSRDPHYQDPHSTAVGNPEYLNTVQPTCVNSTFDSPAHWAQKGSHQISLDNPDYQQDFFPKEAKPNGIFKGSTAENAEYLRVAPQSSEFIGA

Consider `C=CC(=O)Nc1cccc(CNc2ncc(Cl)c(Nc3ccccc3S(=O)(=O)C(C)C)n2)c1` [Compound XIII-3, N-(3-(((5-chloro-4-((2-(isopropylsulfonyl)phenyl)amino)pyrimidin-2-yl)amino)methyl)phenyl)acrylamide], for which the GI50 in test [1] stood at 721 nM; in test [2], 670 nM.

`C=CC(=O)Nc1cccc(Nc2ncc(Cl)c(Nc3ccccc3C(=O)NC)n2)c1` [Compound XIII-1, 2-((2-((3-acrylamidophenyl)amino)-5-chloropyrimidin-4-yl)amino)-N-methylbenzamide]: the GI50 came to 3 nM at Ba/F3 cells EGFR vIII, 6 nM in test [1] and 3 nM in test [2]. In the test with A549 (KRAS G12), this molecule showed an IC50 of 814 nM.

In the case of `C=CC(=O)Nc1cccc(Nc2ncc(Cl)c(Nc3ccccc3S(=O)(=O)C(C)C)n2)c1` [Compound XIII-4, N-(3-((5-chloro-4-((2-(isopropylsulfonyl)phenyl)amino)pyrimidin-2-yl)amino)phenyl)acrylamide], the GI50 in test [1] came out at 17 nM; in test [2], 7 nM.

With `C=CC(=O)Nc1ccc(OC)c(Nc2ncc(Cl)c(Nc3ccccc3C(=O)NC)n2)c1` [Compound XIII-2, 2-((2-((5-acrylamido-2-methoxyphenyl)amino)-5-chloropyrimidin-4-yl)amino)-N-methylbenzamide], the GI50 at Ba/F3 cells EGFR vIII is 570 nM; in test [1] it was 65 nM; in test [2], 56 nM. Also, the concentration for half-maximal inhibition (IC50) in the test on A549 (KRAS G12) is above 3300 nM; in the test with PC9 (EGFR Del 19), 118 nM; in test [3], 104 nM.

For `C=CC(=O)Nc1cccc(Nc2ncc(Cl)c(Nc3ccccc3S(=O)(=O)NC)n2)c1` [Compound XIII-5, N-(3-((5-chloro-4-((2-(N-methylsulfamoyl)phenyl)amino)pyrimidin-2-yl)amino)phenyl)acrylamide], the GI50 in test [1] stood at 9 nM; in test [2], 11 nM.

Broadly, the IC50 is the concentration needed to halve the response being measured.

For the origin of these results see patent US20160137610A1, “Compounds that Modulate EGFR Activity and Methods for Treating or Preventing Conditions Therewith” (Gatekeeper Pharmaceuticals, Inc., priority 2010, published 2016).
